{"source": "patent US9315498B2", "about": "“Arlethynyl derivatives” (Hoffmann-La Roche Inc., priority 2010, dated 2016)", "target": "human mGlu5a receptor (Homo sapiens (Human), UniProt P41594)", "sequence (P41594 other isoform, or with tags, fused parts or gaps)": "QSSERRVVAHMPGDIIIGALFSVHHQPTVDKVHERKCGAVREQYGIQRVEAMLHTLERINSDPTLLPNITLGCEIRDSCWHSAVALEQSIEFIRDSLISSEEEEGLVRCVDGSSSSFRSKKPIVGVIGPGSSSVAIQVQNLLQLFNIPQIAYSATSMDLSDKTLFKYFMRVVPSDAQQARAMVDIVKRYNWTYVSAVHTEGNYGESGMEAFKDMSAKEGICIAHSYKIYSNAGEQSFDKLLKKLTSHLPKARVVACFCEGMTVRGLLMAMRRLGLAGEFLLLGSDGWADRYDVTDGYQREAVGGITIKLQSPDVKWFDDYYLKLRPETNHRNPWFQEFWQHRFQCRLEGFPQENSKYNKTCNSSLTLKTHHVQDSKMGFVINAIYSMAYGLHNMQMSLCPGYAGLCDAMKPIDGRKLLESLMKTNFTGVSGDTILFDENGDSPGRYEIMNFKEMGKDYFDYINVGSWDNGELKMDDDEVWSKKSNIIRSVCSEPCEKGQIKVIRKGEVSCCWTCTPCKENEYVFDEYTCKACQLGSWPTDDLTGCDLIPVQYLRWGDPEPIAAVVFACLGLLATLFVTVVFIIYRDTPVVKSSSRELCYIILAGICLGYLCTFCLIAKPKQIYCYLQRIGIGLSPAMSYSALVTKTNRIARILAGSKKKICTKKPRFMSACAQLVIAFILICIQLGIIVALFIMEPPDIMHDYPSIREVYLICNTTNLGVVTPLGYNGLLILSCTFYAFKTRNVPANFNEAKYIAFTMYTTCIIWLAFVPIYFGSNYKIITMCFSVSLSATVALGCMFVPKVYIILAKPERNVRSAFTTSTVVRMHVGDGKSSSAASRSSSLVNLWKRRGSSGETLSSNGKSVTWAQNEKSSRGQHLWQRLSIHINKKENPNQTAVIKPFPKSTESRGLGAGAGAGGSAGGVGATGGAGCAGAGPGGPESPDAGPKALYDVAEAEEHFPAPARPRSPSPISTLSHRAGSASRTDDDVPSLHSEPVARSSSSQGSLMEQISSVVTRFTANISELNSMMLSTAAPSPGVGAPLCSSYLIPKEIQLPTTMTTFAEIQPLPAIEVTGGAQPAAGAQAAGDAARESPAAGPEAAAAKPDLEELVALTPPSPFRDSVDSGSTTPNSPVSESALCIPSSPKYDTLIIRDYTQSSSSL", "test": "Intracellular Ca2+ mobilization assay (mGlu5 PAM)", "format": "cell-based", "details": "for EC50: HEK-293 cells stably transfected with human mGlu5a, L-glutamate added at EC20 after pre-incubation with test compound, read-out: EC50 (nM) mGlu5PAM; for Emax: maximal response in % of the maximal stimulatory effect obtained with saturating concentrations of L-glutamate, read-out: Eff. (%)", "method": "A monoclonal HEK-293 cell line stably transfected with a cDNA encoding for the human mGlu5a receptor was generated; for the work with mGlu5 Positive Allosteric Modulators (PAMs), a cell line with low receptor expression levels and low constitutive receptor activity was selected to allow the differentiation of agonistic versus PAM activity. Cells were cultured according to standard protocols (Freshney, 2000) in Dulbecco's Modified Eagle Medium with high glucose supplemented with 1 mM glutamine, 10% (vol/vol) heat-inactivated bovine calf serum, Penicillin/Streptomycin, 50 μg/ml hygromycin and 15 μg/ml blasticidin (all cell culture reagents and antibiotics from Invitrogen, Basel, Switzerland).\nAbout 24 hrs before an experiment, 5×10^4 cells/well were seeded in poly-D-lysine coated, black/clear-bottomed 96-well plates. The cells were loaded with 2.5 μM Fluo-4AM in loading buffer (1×HBSS, 20 mM HEPES) for 1 hr at 37° C. and washed five times with loading buffer. The cells were transferred into a Functional Drug Screening System 7000 (Hamamatsu, Paris, France), and 11 half logarithmic serial dilutions of test compound at 37° C. were added and the cells were incubated for 10-30 min. with on-line recording of fluorescence. Following this pre-incubation step, the agonist L-glutamate was added to the cells at a concentration corresponding to EC20 (typically around 80 μM) with on-line recording of fluorescence; in order to account for day-to-day variations in the responsiveness of cells, the EC20 of glutamate was determined immediately ahead of each experiment by recording of a full dose-response curve of glutamate.\nResponses were measured as peak increase in fluorescence minus basal (i.e. fluorescence without addition of L-glutamate), normalized to the maximal stimulatory effect obtained with saturating concentrations of L-glutamate. Graphs were plotted with the % maximal stimulatory using XLfit, a curve fitting program that iteratively plots the data using Levenburg Marquardt algorithm. The single site competition analysis equation used was y=A+((B−A)/(1+((x/C)D))), where y is the % maximal stimulatory effect, A is the minimum y, B is the maximum y, C is the EC50, x is the log10 of the concentration of the competing compound and D is the slope of the curve (the Hill Coefficient). From these curves the EC50 (concentration at which half maximal stimulation was achieved), the Hill coefficient as well as the maximal response in % of the maximal stimulatory effect obtained with saturating concentrations of L-glutamate were calculated.\nA depression of the signal observed after addition of the EC20 concentration of L-glutamate was indicative of an inhibitory activity of the test compound."}
{"smiles": "CC(C)N1C(=O)N(c2ccc(C#Cc3ccccc3)cn2)CC1(C)C", "note": "[Example 18, 3-Isopropyl-4,4-dimethyl-1-(5-phenylethynyl-pyridin-2-yl)-imidazolidin-2-one]", "values": [{"measurement": "EC50", "value": 39, "unit": "nM"}, {"measurement": "Emax", "value": 133, "unit": "%"}]}
{"smiles": "CC1(C)CC(=O)N(c2ncc(C#Cc3ccccc3)cc2F)C1", "note": "[Example 21, 1-(3-Fluoro-5-phenylethynyl-pyridin-2-yl)-4,4-dimethyl-pyrrolidin-2-one]", "values": [{"measurement": "EC50", "value": 30, "unit": "nM"}, {"measurement": "Emax", "value": 128, "unit": "%"}]}
{"smiles": "CC1(C)CNC(=O)N(c2ccc(C#Cc3ccccc3)cn2)C1", "note": "[Example 25, 5,5-Dimethyl-1-(5-phenylethynyl-pyridin-2-yl)-tetrahydro-pyrimidin-2-one]", "values": [{"measurement": "EC50", "value": 69, "unit": "nM"}, {"measurement": "Emax", "value": 148, "unit": "%"}]}
{"smiles": "CN1CC(C)(C)CN(c2ccc(C#Cc3ccccc3)cn2)C1=O", "note": "[Example 26, 1,5,5-Trimethyl-3-(5-phenylethynyl-pyridin-2-yl)-tetrahydro-pyrimidin-2-one]", "values": [{"measurement": "Emax", "value": 131, "unit": "%"}]}
{"smiles": "CC1(C)OC(=O)N(c2ccc(C#Cc3ccccc3)cn2)C1(C)C", "note": "[Example 28, 4,4,5,5-Tetramethyl-3-(5-phenylethynyl-pyridin-2-yl)-oxazolidin-2-one]", "values": [{"measurement": "EC50", "value": 48, "unit": "nM"}, {"measurement": "Emax", "value": 31, "unit": "%"}]}
{"smiles": "CC1(C)CN(c2ccc(C#Cc3cncc(F)c3)cn2)C(=O)O1", "note": "[Example 29, 3-[5-(5-Fluoro-pyridin-3-ylethynyl)-pyridin-2-yl]-5,5-dimethyl-oxazolidin-2-one]", "values": [{"measurement": "EC50", "value": 15, "unit": "nM"}, {"measurement": "Emax", "value": 45, "unit": "%"}]}
{"smiles": "CC1(C)CN(c2ccc(C#Cc3cncnc3)cn2)C(=O)O1", "note": "[Example 30, 5,5-Dimethyl-3-(5-pyrimidin-5-ylethynyl-pyridin-2-yl)-oxazolidin-2-one]", "values": [{"measurement": "EC50", "value": 80, "unit": "nM"}, {"measurement": "Emax", "value": 43, "unit": "%"}]}
{"smiles": "Cn1cc(C#Cc2ccc(N3CC(C)(C)OC3=O)nc2)cn1", "note": "[Example 31, 5,5-Dimethyl-3-[5-(1-methyl-1H-pyrazol-4-ylethynyl)-pyridin-2-yl]-oxazolidin-2-one]", "values": [{"measurement": "EC50", "value": 26, "unit": "nM"}, {"measurement": "Emax", "value": 55, "unit": "%"}]}
{"smiles": "CC1(C)CN(c2ccc(C#Cc3ccc(F)cc3)cn2)C(=O)O1", "note": "[Example 32, 3-[5-(4-Fluoro-phenylethynyl)-pyridin-2-yl]-5,5-dimethyl-oxazolidin-2-one]", "values": [{"measurement": "EC50", "value": 19, "unit": "nM"}, {"measurement": "Emax", "value": 60, "unit": "%"}]}
{"smiles": "CC1(C)CN(c2ccc(C#Cc3ccc(F)c(F)c3)cn2)C(=O)O1", "note": "[Example 33, 3-[5-(3,4-Difluoro-phenylethynyl)-pyridin-2-yl]-5,5-dimethyl-oxazolidin-2-one]", "values": [{"measurement": "EC50", "value": 32, "unit": "nM"}, {"measurement": "Emax", "value": 44, "unit": "%"}]}
{"smiles": "CC1(C)CN(c2ccc(C#Cc3cc(F)ccc3F)cn2)C(=O)O1", "note": "[Example 34, 3-[5-(2,5-Difluoro-phenylethynyl)-pyridin-2-yl]-5,5-dimethyl-oxazolidin-2-one]", "values": [{"measurement": "EC50", "value": 11, "unit": "nM"}, {"measurement": "Emax", "value": 38, "unit": "%"}]}
{"smiles": "CC1(C)CN(c2ccc(C#Cc3ccc(F)nc3)cn2)C(=O)O1", "note": "[Example 35, 3-[5-(6-Fluoro-pyridin-3-ylethynyl)-pyridin-2-yl]-5,5-dimethyl-oxazolidin-2-one]", "values": [{"measurement": "EC50", "value": 54, "unit": "nM"}, {"measurement": "Emax", "value": 52, "unit": "%"}]}
{"smiles": "O=C1OC2(CC2)CN1c1ccc(C#Cc2cccnc2)cn1", "note": "[Example 36, 6-(5-Pyridin-3-ylethynyl-pyridin-2-yl)-4-oxa-6-aza-spiro[2.4]heptan-5-one]", "values": [{"measurement": "EC50", "value": 58, "unit": "nM"}, {"measurement": "Emax", "value": 80, "unit": "%"}]}
{"smiles": "CC1(C)CC(=O)N(c2ccc(C#Cc3cncc(F)c3)cn2)C1", "note": "[Example 37, 1-[5-(5-Fluoro-pyridin-3-ylethynyl)-pyridin-2-yl]-4,4-dimethyl-pyrrolidin-2-one]", "values": [{"measurement": "EC50", "value": 22, "unit": "nM"}, {"measurement": "Emax", "value": 96, "unit": "%"}]}
{"smiles": "CC1(C)CC(=O)N(c2ccc(C#Cc3cccnc3)cn2)C1", "note": "[Example 38, 4,4-Dimethyl-1-(5-pyridin-3-ylethynyl-pyridin-2-yl)-pyrrolidin-2-one]", "values": [{"measurement": "EC50", "value": 33, "unit": "nM"}, {"measurement": "Emax", "value": 147, "unit": "%"}]}
{"smiles": "CC1(C)CC(=O)N(c2ccc(C#Cc3cncc(Cl)c3)cn2)C1", "note": "[Example 39, 1-[5-(5-Chloro-pyridin-3-ylethynyl)-pyridin-2-yl]-4,4-dimethyl-pyrrolidin-2-one]", "values": [{"measurement": "EC50", "value": 48, "unit": "nM"}, {"measurement": "Emax", "value": 98, "unit": "%"}]}
{"smiles": "CC1(C)CC(=O)N(c2ccc(C#Cc3cccc(F)c3)cn2)C1", "note": "[Example 40, 1-[5-(3-Fluoro-phenylethynyl)-pyridin-2-yl]-4,4-dimethyl-pyrrolidin-2-one]", "values": [{"measurement": "EC50", "value": 15, "unit": "nM"}, {"measurement": "Emax", "value": 100, "unit": "%"}]}
{"smiles": "Cc1cc(C#Cc2ccccc2)cnc1N1CC(C)(C)CC1=O", "note": "[Example 41, 4,4-Dimethyl-1-(3-methyl-5-phenylethynyl-pyridin-2-yl)-pyrrolidin-2-one]", "values": [{"measurement": "EC50", "value": 58, "unit": "nM"}, {"measurement": "Emax", "value": 89, "unit": "%"}]}
{"smiles": "CC1(C)CCC(=O)N(c2ccc(C#Cc3ccccc3)cn2)C1", "note": "[Example 42, 5,5-Dimethyl-5′-phenylethynyl-3,4,5,6-tetrahydro-[1,2′]bipyridinyl-2-one]", "values": [{"measurement": "EC50", "value": 16, "unit": "nM"}, {"measurement": "Emax", "value": 139, "unit": "%"}]}
{"smiles": "CC1(C)CCC(=O)N(c2ccc(C#Cc3cccc(F)c3)cn2)C1", "note": "[Example 43, 5′-(3-Fluoro-phenylethynyl)-5,5-dimethyl-3,4,5,6-tetrahydro-[1,2′]bipyridinyl-2-one]", "values": [{"measurement": "EC50", "value": 12, "unit": "nM"}, {"measurement": "Emax", "value": 100, "unit": "%"}]}
{"smiles": "CN1C(=O)N(c2ccc(C#Cc3ccccc3)cn2)CC12CCCC2", "note": "[Example 44, 1-Methyl-3-(5-phenylethynyl-pyridin-2-yl)-1,3-diaza-spiro[4.4]nonan-2-one]", "values": [{"measurement": "EC50", "value": 29, "unit": "nM"}, {"measurement": "Emax", "value": 92, "unit": "%"}]}
{"smiles": "CN1C(=O)N(c2ccc(C#Cc3cccnc3)cn2)CC1(C)C", "note": "[Example 48, 3,4,4-Trimethyl-1-(5-pyridin-3-ylethynyl-pyridin-2-yl)-imidazolidin-2-one]", "values": [{"measurement": "EC50", "value": 14, "unit": "nM"}, {"measurement": "Emax", "value": 89, "unit": "%"}]}
{"smiles": "CN1C(=O)N(c2ccc(C#Cc3cncc(F)c3)cn2)CC1(C)C", "note": "[Example 49, 1-[5-(5-Fluoro-pyridin-3-ylethynyl)-pyridin-2-yl]-3,4,4-trimethyl-imidazolidin-2-one]", "values": [{"measurement": "EC50", "value": 37, "unit": "nM"}, {"measurement": "Emax", "value": 91, "unit": "%"}]}
{"smiles": "CN1C(=O)N(c2ccc(C#Cc3cnn(C)c3)cn2)CC1(C)C", "note": "[Example 50, 3,4,4-Trimethyl-1-[5-(1-methyl-1H-pyrazol-4-ylethynyl)-pyridin-2-yl]-imidazolidin-2-one]", "values": [{"measurement": "EC50", "value": 27, "unit": "nM"}, {"measurement": "Emax", "value": 41, "unit": "%"}]}
{"smiles": "CN1C(=O)N(c2ccc(C#Cc3cncc(Cl)c3)cn2)CC1(C)C", "note": "[Example 51, 1-[5-(5-Chloro-pyridin-3-ylethynyl)-pyridin-2-yl]-3,4,4-trimethyl-imidazolidin-2-one]", "values": [{"measurement": "EC50", "value": 29, "unit": "nM"}, {"measurement": "Emax", "value": 45, "unit": "%"}]}
{"smiles": "CN1C(=O)N(c2ccc(C#Cc3ccnnc3)cn2)CC1(C)C", "note": "[Example 52, 3,4,4-Trimethyl-1-(5-pyridazin-4-ylethynyl-pyridin-2-yl)-imidazolidin-2-one]", "values": [{"measurement": "EC50", "value": 34, "unit": "nM"}, {"measurement": "Emax", "value": 32, "unit": "%"}]}
{"smiles": "CN1C(=O)N(c2ccc(C#Cc3cccc(F)c3)cn2)CC1(C)C", "note": "[Example 53, 1-[5-(3-Fluoro-phenylethynyl)-pyridin-2-yl]-3,4,4-trimethyl-imidazolidin-2-one]", "values": [{"measurement": "EC50", "value": 29, "unit": "nM"}, {"measurement": "Emax", "value": 103, "unit": "%"}]}
{"smiles": "CN1C(=O)N(c2ccc(C#Cc3cccc(Cl)c3)cn2)CC1(C)C", "note": "[Example 54, 1-[5-(3-Chloro-phenylethynyl)-pyridin-2-yl]-3,4,4-trimethyl-imidazolidin-2-one]", "values": [{"measurement": "EC50", "value": 32, "unit": "nM"}, {"measurement": "Emax", "value": 47, "unit": "%"}]}
{"smiles": "CN1C(=O)N(c2ccc(C#Cc3cncnc3)cn2)CC1(C)C", "note": "[Example 55, 3,4,4-Trimethyl-1-(5-pyrimidin-5-ylethynyl-pyridin-2-yl)-imidazolidin-2-one]", "values": [{"measurement": "EC50", "value": 54, "unit": "nM"}, {"measurement": "Emax", "value": 110, "unit": "%"}]}
{"smiles": "Cc1cccc(C#Cc2ccc(N3CC(C)(C)N(C)C3=O)nc2)c1", "note": "[Example 56, 3,4,4-Trimethyl-1-(5-m-tolylethynyl-pyridin-2-yl)-imidazolidin-2-one]", "values": [{"measurement": "EC50", "value": 87, "unit": "nM"}, {"measurement": "Emax", "value": 56, "unit": "%"}]}
